Assay results reported in patent US10660967B2, “Curcumin conjugates and methods of use thereof” (priority 2016, dated 2020).
Like-named read-outs stand apart in the source and are kept apart here.

How the values were obtained:
[1] = tested on: Pseudomonas aeruginosa ATCC27853; test: Antimicrobial MIC, agar dilution
[2] = tested on: MCF7 (breast) carcinoma cell line; test: Anti-tumor properties, MTT; type: cell-based; settings: Homo sapiens; MCF7, 100 μM, 72 h; read-out: Percentage growth of tumor cell lines treated with the tested compounds (±SD)
Protocol: (§1) Anti-tumor properties of curcumin conjugates were evaluated. The synthesized curcumin-amino acid conjugates and curcumin itself were screened for their antitumor properties against human tumor cell lines utilizing HepG2 (hepatocellular), MCF7 (breast), and HCT116 (colon) carcinoma cell lines by the standard mitochondrial dependent reduction of yellow MTT [3-(4,5-dimethylthiazol-2-yl)-2,5-diphenyl-tetrazolium bromide] to purple formazan technique. Cancer cells were obtained from the Egyptian Company for Production of Vaccines, Sera and Drugs (VACSERA), Cairo, Egypt. Media, chemicals and supplies for the bio-assay were obtained from Biowest, Gibco and Lonza Companies. Cells were suspended in RPMI-1640 medium for HepG2, DMEMF12 for MCF-7, and DMEM for HCT116 in addition to 1% antibiotic-antimycotic mixture (10 […] potassium penicillin, 10 […] streptomycin sulfate and […] amphotericin B), 10% fetal bovine serum and 1% L-glutamine at 37° C., under 5% CO2 and 95% humidity. Cells were seeded at a concentration of 10×10^3 cells per well in fresh complete growth medium in 96-well tissue culture microtiter plates for 24 h. Media was aspirated, 180 μL fresh medium (without serum) were added and cells were incubated with different concentrations of sample to give a final concentration of 100 μM. 0.5% DMSO was used as a negative control and doxorubicin was used as a positive control (standard reference). Triplicate wells were prepared for each individual tested compound/dose. After 72 h of incubation, the medium was aspirated, 40 μL MTT salt (2.5 mg ml^1) were added to each well and incubated for an additional 4 h at 37° C. To stop the reaction and dissolve the formed crystals, 200 μL of 10% sodium dodecyl sulfate (SDS) in deionized water were added to each well and incubated overnight at 37° C. The absorbance was then measured at 595 nm with a reference wavelength of 620 nm. Data were collected as mean values for experiments performed in triplicates for each compound which had been measured by MTT assay.
(§2) The percentage of cell survival was calculated according to equation (4): […]
(§3) The IC50 was determined using Graph-Pad PRISM version-5 software. Statistical calculations for determination of the mean and standard deviation (SD) values were determined by SPSS 16 software.

[3] = tested on: HCT116 (colon) carcinoma cell line; test: Anti-tumor properties, MTT; type: cell-based; settings: Homo sapiens, HCT-116; HCT116, 100 μM, 72 h; read-out: Percentage growth of tumor cell lines treated with the tested compounds (±SD)
Protocol: as §1, §2, §3

[4] = tested on: HepG2 (hepatocellular) carcinoma cell line; test: Anti-tumor properties, MTT; type: cell-based; settings: Homo sapiens; HepG2, 100 μM, 72 h; read-out: Percentage growth of tumor cell lines treated with the tested compounds (±SD)
Protocol: as §1, §2, §3

[5] = tested on: Streptococcus pyogenes ATCC19615; test: Antimicrobial MIC, agar dilution
[6] = tested on: Candida albicans (local isolate); test: Antimicrobial MIC, agar dilution; settings: Candida albicans, read-out: Minimum inhibitory concentration (MIC)
[7] = tested on: lipopolysaccharide-stimulated peritoneal macrophages; test: Production of nitric oxide by lipopolysaccharide-stimulated peritoneal macrophages (Greiss reagent); type: cell-based; design: Potency (%): % inhibition of nitric oxide production relative to lipopolysaccharide-stimulated macrophages: concentration or dose not given beside the values; settings: LPS-stimulated peritoneal macrophages; for Nitric oxide (nitrite) concentration, μM (average ± SD): 24 h, nitrite by Greiss reagent
Protocol: The effects of the synthesized curcumin conjugates on the production of nitric oxide (μM) by lipopolysaccharide-stimulated peritoneal macrophages were evaluated.
Two milliliters of macrophage cells were seeded in 12-well tissue culture plates in nitrite-free medium supplemented with 0.1% bovine serum albumin and incubated at 37° C. LPS±epinephrine, norepinephrine, or dopamine at […] concentrations was added to some wells. The concentrations of LPS used ranged from 0.5 to 10 ng/ml. After incubation for 24 h, supernatants were collected for measuring nitric oxide (NO) by spectrophotometry. The production of NO was determined from the accumulation of nitrite (NO2), the metabolic end product of NO metabolism, in the medium using the Greiss reagent. About equal volumes (100 μl) of sample and Greiss reagent (1:1 mixture of 1% sulfanilamide in 5% phosphoric acid, and 0.1% a-naphthylamine in distilled water) were mixed and incubated at room temperature for 15 min, and absorbance was measured at 532 nm on a spectrophotometer.

[8] = tested on: Salmonella typhi ATCC19430; test: Antimicrobial MIC, agar dilution; type: cell-based; settings: Salmonella enterica, read-out: Minimum inhibitory concentration (MIC)
[9] = tested on: PHA-stimulated splenocytes; test: Proliferative response of PHA-stimulated splenocytes (MTT assay); type: cell-based; settings: PHA 5 μg/ml, 72 hr; compounds at 5 μM (method says 10 μM); ratio of O.D. versus vehicle control
Protocol: Immunomodulatory effects of the synthesized curcumin conjugates on the proliferative response of PHA-stimulated splenocytes were evaluated. The effect of curcumin and its amino acid conjugates on splenocyte viability and proliferation in response to a T cell miotgen (Phytohaemagglutinin; PHA) was evaluated using the MTT assay. Freshly prepared splenocytes (1×10^6 cells/200 μl/well) were cultured in a 96-well U-bottom microtiter plate (Nunc) in complete medium. Cells were treated with tested compounds at a final concentration of 10 μM, vehicle (DMSO) or left untreated in triplicate then incubated at 37° C. and 5% CO2. When testing the immunoregulatory effects of the compounds on splenocyte stimulation, PHA (5 μg/ml) was added to the culture media to induce T cell proliferation. The proliferative response to PHA+vehicle and vehicle alone served as controls. After 72 hr, media were removed after pelleting the cells by centrifugation and MTT salt solution (5 mg/ml) was added into each well then incubated at 37° C. for 4 h. Afterwards, formazan crystals were dissolved by adding 150 μl 10% sodium dodecyl sulfate (SDS). Absorbance was measured with a spectrophotometer at 570 nm and reference wavelength of 690 nm.
Splenocyte stimulation index was determined as the ratio of O.D. values in tested compounds versus vehicle control cultures.

[10] = tested on: Staphylococcus aureus ATCC25923; test: Antimicrobial MIC, agar dilution
MCF-7 cells = test: Effect on doxorubicin induced cytotoxicity (MTT); settings: for Percentage of viable cells MCF-7 (average ± SD): 10 μM DOX in combination with 100 μM curcumin derivative, 48 hr; for viability at 100 µM: Homo sapiens, MCF7, 48 h, read-out: Percentage of viable cells MCF-7 (average ± SD)
Protocol: The effects of curcumin conjugates on doxorubicin induced cytotoxicity were evaluated. In order to further examine whether curcumin derivatives can enhance conventional chemotherapeutic agents, MCF-7 cells were treated with 100 μM curcumin derivatives alone or in combination with 10 μM doxorubicin (DOX) for 48 hr. Control cultures received only medium, vehicle (DMSO), or vehicle+DOX. The percentage of viable cells was determined by MTT assay according to equation (5): […]

[11] = ATCC27853, 18 h, read-out: Minimum inhibitory concentration (MIC)
[12] = ATCC27853, read-out: Minimum inhibitory concentration (MIC)
[13] = ATCC19615, 18 h, read-out: Minimum inhibitory concentration (MIC)
[14] = ATCC19615, read-out: Minimum inhibitory concentration (MIC)
[15] = ATCC25923, 18 h, read-out: Minimum inhibitory concentration (MIC)
[16] = ATCC25923, read-out: Minimum inhibitory concentration (MIC)

Structure (SMILES)	MIC [1, 11] [µg/mL]	MIC [1, 12] [µM]	activity at 100 µM [2] [%]	activity at 100 µM [3] [%]	activity at 100 µM [4] [%]	MIC [5, 13] [µg/mL]	MIC [5, 14] [µM]	MIC ([6]; 18 h) [µg/mL]	MIC [6] [µM]	Potency (%): % inhibition of nitric oxide production relative to lipopolysaccharide-stimulated macrophages [7] [%]	Nitric oxide (nitrite) concentration, μM (average ± SD) [7] [µM]	MIC ([8]; 18 h) [µg/mL]	MIC [8] [µM]	Stimulation Index (average ± SD) [9]	MIC [10, 15] [µg/mL]	MIC [10, 16] [µM]	Percentage of viable cells MCF-7 (average ± SD) (MCF-7 cells)	viability at 100 µM (MCF-7 cells) [%]
COc1cc(/C=C/C(=O)CC(=O)/C=C/c2ccc(OC(=O)[C@H](Cc3c[nH]c4ccccc34)NC(=O)OCc3ccccc3)c(OC)c2)ccc1OC(=O)[C@H](Cc1c[nH]c2ccccc12)NC(=O)OCc1ccccc1 [Cbz-Trp-Cur, ((1E,6E)-3,5-dioxohepta-1,6-diene-1,7-diyl)bis(2-methoxy-4,1-phenylene) (2S,2′S)-bis(2-(((benzyloxy)carbonyl)amino)-3-(1H-indol-3-yl)propanoate)]	0.25	0.248	79.5 ± 0.6	100 ± 7	97.6 ± 6.8	0.5	0.496	1	0.991	11.08	24.28 ± 0.82	0.125	0.124	2.60 ± 0.12	0.125	0.124	45.17 ± 4.04	98.2 ± 2.96
COc1cc(/C=C/C(=O)CC(=O)/C=C/c2ccc(OC(=O)[C@@H](NC(=O)OCc3ccccc3)C(C)C)c(OC)c2)ccc1OC(=O)[C@@H](NC(=O)OCc1ccccc1)C(C)C [Cbz-Val-Cur, ((1E,6E)-3,5-dioxohepta-1,6-diene-1,7-diyl)bis(2-methoxy-4,1-phenylene) (2S,2′S)-bis(2-(((benzyloxy)carbonyl)amino)-3-methylbutanoate)]	0.25	0.299	85	112 ± 7.9	92.4 ± 2.8	0.5	0.599	1	1.2	5.68	25.76 ± 0.99	0.125	0.15	2.87 ± 0.11	0.125	0.15	49.68 ± 1.46	99.2 ± 2.15
COc1cc(/C=C/C(=O)CC(=O)/C=C/c2ccc(OC(=O)[C@H](C)NC(=O)OCC3c4ccccc4-c4ccccc43)c(OC)c2)ccc1OC(=O)[C@H](C)NC(=O)OCC1c2ccccc2-c2ccccc21 [Fmoc-Ala-Cur, ((1E,6E)-3,5-dioxohepta-1,6-diene-1,7-diyl)bis(2-methoxy-4,1-phenylene) (2S,2′S)-bis(2-((((9H-fluoren-9-yl)methoxy)carbonyl)amino)propanoate)]	0.25	0.262	73.6 ± 2.2	96.9 ± 3.2	78.3 ± 5.1	0.5	0.524	1	1.05	20.22	21.79 ± 2.71	0.25	0.262	2.22 ± 0.41	0.5	0.524	–	99.2 ± 3.65
COc1cc(/C=C/C(=O)CC(=O)/C=C/c2ccc(OC(=O)[C@H](CC(C)C)NC(=O)OCC3c4ccccc4-c4ccccc43)c(OC)c2)ccc1OC(=O)[C@H](CC(C)C)NC(=O)OCC1c2ccccc2-c2ccccc21 [Fmoc-Leu-Cur, ((1E,6E)-3,5-dioxohepta-1,6-diene-1,7-diyl)bis(2-methoxy-4,1-phenylene) (2S,2′S)-bis(2-((((9H-fluoren-9-yl)methoxy)carbonyl)amino)-4-methylpentanoate)]	0.25	0.241	83 ± 1.1	99.5 ± 3.8	103 ± 2.6	0.5	0.481	0.5	0.481	21.88	21.34 ± 0.86	0.5	0.481	2.16 ± 0.13	0.25	0.241	41.16 ± 2.33	98.2 ± 2.98
COc1cc(/C=C/C(=O)CC(=O)/C=C/c2ccc(OC(=O)[C@H](Cc3ccccc3)NC(=O)OCC3c4ccccc4-c4ccccc43)c(OC)c2)ccc1OC(=O)[C@H](Cc1ccccc1)NC(=O)OCC1c2ccccc2-c2ccccc21 [Fmoc-Phe-Cur, ((1E,6E)-3,5-dioxohepta-1,6-diene-1,7-diyl)bis(2-methoxy-4,1-phenylene) (2S,2′S)-bis(2-((((9H-fluoren-9-yl)methoxy)carbonyl)amino)-3-phenylpropanoate)]	2	1.81	84.7 ± 3.6	110 ± 7.3	108 ± 3.6	0.125	0.113	0.5	0.452	31.01	18.84 ± 0.69	0.25	0.226	1.78 ± 0.10	0.25	0.226	42.49 ± 2.71	98.3 ± 2.21
